{"source": "patent US20090275551A1", "about": "“Fluvastatin for the treatment of patients with a history of muscle related side effects with other statins” (priority 2007, published 2009)", "key": {"[1]": {"tested_on": "LDL-C", "test": "Randomized, double-blind 12-week study: lipid-lowering efficacy in patients with prior statin MRSEs", "format": "in vivo, human (patients)", "experimental": "(§1) A randomized, double-blind, double-dummy, parallel-group, multicenter study evaluating the efficacy and tolerability of fluvastatin XL 80 mg/day, and ezetimibe 10 mg/day, alone or in combination, is conducted according to the ethical principles of the Guidelines for Good Clinical Practice and the Declaration of Helsinki of the World Medical Association. Patients are recruited in 27 centers in Germany, Greece, Norway, Russia, Turkey and the United States. The protocol is approved by local ethics committees or institutional review boards. Written, informed consent before randomization are provided by all patients.\nAfter a minimum 5-week lead-in, drug wash-out and diet stabilization period, patients who fulfilled the study criteria are randomized in a 1:1:1 ratio to 12-week treatment with fluvastatin XL 80 mg plus matched placebo for ezetimibe 10 mg, or ezetimibe 10 mg plus matched placebo for fluvastatin XL 80 mg, or fluvastatin XL 80 mg plus ezetimibe 10 mg. […] Compliance is assessed by study personnel using pill counts at each visit. […]\nInitial screening includes medical history, physical examination, clinical chemistry, hematology and urinalysis. […] AI and Apo-B are measured at weeks 0, 4, 8 and 12. High sensitivity C-reactive protein (hs-CRP) is measured at weeks 0 and 12. […] LDL-C is calculated using the Friedewald formula when triglyceride levels <400 mg/dL. […]"}, "[2]": {"test": "Randomized, double-blind 12-week study: safety, tolerability and recurrence of muscle-related side effects (MRSE)", "format": "in vivo, human (patients)", "experimental": "as §1\nAfter a minimum 5-week lead-in, drug wash-out and diet stabilization period, patients who fulfilled the study criteria are randomized in a 1:1:1 ratio to 12-week treatment with fluvastatin XL 80 mg plus matched placebo for ezetimibe 10 mg, or ezetimibe 10 mg plus matched placebo for fluvastatin XL 80 mg, or fluvastatin XL 80 mg plus ezetimibe 10 mg. For blinding purposes tablets for fluvastatin XL/placebo and capsules for ezetimibe/placebo are used. Treatment assignment is unbiased and concealed from patients and investigator staff, by a randomization list produced by the sponsor using a validated system that automates the random assignment of treatment groups. Treatment remains fully blinded from the time of randomization until database lock. Trial medication is taken with water at bedtime. Compliance is assessed by study personnel using pill counts at each visit. Patients are to continue a low saturated fat and cholesterol-restricted diet and exercise regimen.\nThe study enrolls men and women 18 years of age or older with dyslipidemia who have previously experienced documented MRSEs that have led to cessation of statin treatment, or patients currently receiving statin treatment (other than fluvastatin) whose quality of life is affected by MRSEs and require switching to an alternative treatment. MRSEs include myalgia (defined as muscle ache, pain or discomfort), muscle cramps, lack of strength during effort, heaviness and/or weakness without creatine kinase elevation >3 times upper limit of normal.\nSafety evaluations include regular monitoring of all adverse events, urine, hematology, blood chemistry, as well as physical examination and assessment of vital signs. MRSEs are assessed before and during the study using a standard questionnaire as detailed in Table 1.\nObjectives of this study are to assess LDL-C reduction from baseline of (1) fluvastatin XL 80 mg in combination with ezetimibe 10 mg compared with ezetimibe 10 mg monotherapy and (2) fluvastatin XL 80 mg compared with ezetimibe 10 mg. Objectives of the study are also include (1) to assess the tolerability of fluvastatin XL 80 mg and ezetimibe 10 mg alone or in combination as determined by the rate of recurrence of MRSEs and the rate of recurrence of MRSEs leading to study drug discontinuation; (2) to assess the effect of fluvastatin XL 80 mg alone or in combination with ezetimibe 10 mg on total cholesterol, triglycerides, HDL-C, LDL-C:HDL-C ratio, Apo-AI and Apo-B compared with ezetimibe 10 mg monotherapy; (3) to determine the number of patients in each treatment group who reached target LDL-C levels according to the current National Cholesterol Education Program guidelines, (4) to assess the effect of fluvastatin XL 80 mg and ezetimibe 10 mg alone or in combination on hs-CRP; and (5) to assess the overall safety and tolerability profile of fluvastatin XL 80 mg and ezetimibe 10 mg alone or in combination.\nWith a sample size of 70 patients per treatment group, the study has 90% power to detect a difference of 9.65% between the population means, using a two-sided comparison with α equal to 0.05 and assuming a standard deviation of 17.5% in both groups. Efficacy and tolerability analyses are performed using the intent-to-treat population, defined as all patients receiving at least 1 dose of study drug. […]"}}, "data": [{"molecule": "O=C1[C@H](CC[C@H](O)c2ccc(F)cc2)[C@@H](c2ccc(O)cc2)N1c1ccc(F)cc1", "note": "[Ezetimibe]", "values": [{"measurement": "LDL-C lowering from baseline", "setting": "[1]; baseline to week 12 or study end (LOCF), fluvastatin XL 80 mg/day, ezetimibe 10 mg/day", "value": 15.6, "unit": "%"}, {"measurement": "patients achieving a LDL-C level of <100 mg/dL at study end", "setting": "[1]; subgroup of 91 patients in the high-risk category", "value": 4, "unit": "%"}, {"measurement": "MRSE recurrence leading to discontinuation, incidence rate", "setting": "[2]; 12-week treatment", "value": 8, "unit": "%"}, {"measurement": "MRSE recurrence leading to discontinuation, number of patients", "setting": "[2]; 12-week treatment", "value": 5, "unit": "patients"}, {"measurement": "any MRSE recurrence, incidence rate", "setting": "[2]; 12-week treatment", "value": 24, "unit": "%"}, {"measurement": "any MRSE recurrence, number of patients", "setting": "[2]; 12-week treatment", "value": 16, "unit": "patients"}, {"measurement": "patients prematurely discontinued from the study due to adverse events", "setting": "[2]; 12-week treatment", "value": 8, "unit": "patients"}, {"measurement": "patients reporting an adverse event", "setting": "[2]; 12-week treatment, safety population", "value": 39, "unit": "patients"}, {"measurement": "median time to first event, MRSE recurrence leading to discontinuation", "setting": "[2]; in vivo", "value": 2.57, "unit": "weeks"}, {"measurement": "median time to first event, any MRSE recurrence", "setting": "[2]; in vivo", "value": 3.07, "unit": "weeks"}]}]}
